Assay results published in ChEMBL document CHEMBL1201862, “PubChem BioAssay data set” (2004).
One block for each molecule: values may come before it. The source made the active and inactive calls.

What was measured:
Tumor necrosis factor = Tumor necrosis factor (Homo sapiens, UniProt P01375); test: analog potency on TNFa NF-kB signaling – cell-based, revised, SAR follow-up (AID 2337); assay type: functional
[1] = biological target: Nucleotide-binding oligomerization domain-containing protein 1 (Homo sapiens, UniProt Q9Y239); test: blockers of NOD1 pathway activity – revised, SAR follow-up (AID 2333); assay type: functional
HEK293 [2] = test: cells; settings: Homo sapiens
[3] = biological target: Nucleotide-binding oligomerization domain-containing protein 2 (Homo sapiens, UniProt Q9HC29); test: PubChem AID 2334; assay type: functional
Protein Rev = Protein Rev (Human immunodeficiency virus type 1 group M subtype B (isolate WMJ22)(HIV-1), UniProt P05866); test: inhibitors of Rev protein–RRE RNA complex – biochemical, protein-RNA interaction, dose response (AID 842); parameters: species or system Human immunodeficiency virus 1
[4] = biological target: T1, Short transient receptor potential channel 4 (Mus musculus, UniProt Q9QUQ5); test: block of DAMGO-driven TRPC4 calcium entry – cell-based, HEK293 TRPC4/mu-opioid, Fluo-4 calcium, dose response (AID 434942); assay type: functional;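 note: potency of inhibitors blocking the TRPC4 calcium response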
T1 sequence (Q9QUQ5 whole entry): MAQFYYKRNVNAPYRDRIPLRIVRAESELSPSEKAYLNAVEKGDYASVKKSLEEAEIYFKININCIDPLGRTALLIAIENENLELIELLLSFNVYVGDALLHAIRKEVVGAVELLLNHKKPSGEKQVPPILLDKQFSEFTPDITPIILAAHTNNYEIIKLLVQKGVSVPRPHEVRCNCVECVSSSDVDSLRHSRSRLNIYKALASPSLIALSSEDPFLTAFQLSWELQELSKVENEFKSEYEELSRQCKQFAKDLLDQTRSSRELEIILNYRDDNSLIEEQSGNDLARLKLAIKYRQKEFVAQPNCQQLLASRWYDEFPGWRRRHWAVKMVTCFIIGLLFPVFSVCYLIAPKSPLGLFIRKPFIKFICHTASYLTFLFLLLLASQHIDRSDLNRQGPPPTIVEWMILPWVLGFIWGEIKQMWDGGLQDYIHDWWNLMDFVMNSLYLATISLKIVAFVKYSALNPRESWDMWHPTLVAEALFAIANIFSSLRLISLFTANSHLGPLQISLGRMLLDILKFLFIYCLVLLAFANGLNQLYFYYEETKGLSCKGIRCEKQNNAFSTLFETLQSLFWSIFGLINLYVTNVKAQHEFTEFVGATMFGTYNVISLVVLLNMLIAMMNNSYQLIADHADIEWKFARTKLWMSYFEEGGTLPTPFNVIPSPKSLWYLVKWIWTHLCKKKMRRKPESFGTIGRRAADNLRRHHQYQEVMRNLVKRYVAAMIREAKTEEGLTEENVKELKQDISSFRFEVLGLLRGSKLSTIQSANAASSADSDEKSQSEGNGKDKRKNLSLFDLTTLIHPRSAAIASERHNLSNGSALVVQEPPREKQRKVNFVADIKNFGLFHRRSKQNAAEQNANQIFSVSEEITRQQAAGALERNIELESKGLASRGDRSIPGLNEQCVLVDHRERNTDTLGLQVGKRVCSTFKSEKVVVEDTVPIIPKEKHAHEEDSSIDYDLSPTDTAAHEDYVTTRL

[5] = biological target: T2, DNA repair protein RAD52 homolog (Homo sapiens, UniProt P43351); assay type: functional, biochemical
T2 sequence (P43351 whole entry): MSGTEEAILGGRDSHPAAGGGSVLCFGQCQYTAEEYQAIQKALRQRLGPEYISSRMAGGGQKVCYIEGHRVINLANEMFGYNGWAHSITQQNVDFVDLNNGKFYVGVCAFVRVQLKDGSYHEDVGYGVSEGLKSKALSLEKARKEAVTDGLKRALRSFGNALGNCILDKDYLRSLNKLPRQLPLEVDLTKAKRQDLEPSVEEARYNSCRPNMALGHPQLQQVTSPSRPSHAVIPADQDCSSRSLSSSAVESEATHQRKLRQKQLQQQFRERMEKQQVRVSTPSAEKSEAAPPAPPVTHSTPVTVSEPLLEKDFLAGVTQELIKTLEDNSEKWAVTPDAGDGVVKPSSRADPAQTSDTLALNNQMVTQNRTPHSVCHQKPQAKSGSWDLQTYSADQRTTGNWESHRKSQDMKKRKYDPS

[6] = biological target: T3, DNA repair and recombination protein RAD54-like (Homo sapiens, UniProt Q92698); test: RAD54 Holliday junction migration blockers – biochemical, fluorescence, cherry-picked samples, dose series, confirmation (AID 651657); assay type: functional
T3 sequence (Q92698 whole entry): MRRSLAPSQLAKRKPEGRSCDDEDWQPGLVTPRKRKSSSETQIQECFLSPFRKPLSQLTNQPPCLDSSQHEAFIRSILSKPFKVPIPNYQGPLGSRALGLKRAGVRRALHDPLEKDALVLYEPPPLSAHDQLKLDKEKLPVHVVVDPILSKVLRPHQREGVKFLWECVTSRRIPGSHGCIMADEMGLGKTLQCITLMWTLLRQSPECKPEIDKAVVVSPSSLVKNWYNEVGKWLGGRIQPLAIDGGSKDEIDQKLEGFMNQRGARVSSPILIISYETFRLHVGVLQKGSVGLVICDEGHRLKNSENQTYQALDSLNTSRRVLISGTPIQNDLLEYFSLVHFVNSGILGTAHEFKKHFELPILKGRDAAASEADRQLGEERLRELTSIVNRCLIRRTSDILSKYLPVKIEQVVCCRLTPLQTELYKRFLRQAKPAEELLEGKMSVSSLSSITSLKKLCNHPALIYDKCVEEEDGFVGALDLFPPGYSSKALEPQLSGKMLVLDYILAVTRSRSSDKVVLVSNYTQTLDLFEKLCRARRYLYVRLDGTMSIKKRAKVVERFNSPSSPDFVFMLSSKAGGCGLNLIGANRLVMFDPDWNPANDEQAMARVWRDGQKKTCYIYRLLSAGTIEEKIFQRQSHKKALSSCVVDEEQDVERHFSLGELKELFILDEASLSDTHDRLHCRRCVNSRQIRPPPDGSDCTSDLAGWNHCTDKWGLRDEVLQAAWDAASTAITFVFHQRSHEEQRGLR

Vero = test: mammalian cell viability reduction – secondary assay, cytotoxicity control for West Nile virus antiviral project, dose response (AID 1650); assay type: functional; settings: Chlorocebus sabaeus
Procathepsin L = Procathepsin L (Homo sapiens, UniProt P07711)
Leucine aminopeptidase = biological target: T4, Leucine aminopeptidase (Plasmodium falciparum 3D7, UniProt Q8IL11); test: P. falciparum M17LAP inhibitors, primary screen, biochemical, fluorogenic H-Leu-NHMec substrate, 1536-well (AID 1619); assay type: functional
T4 sequence (Q8IL11 whole entry): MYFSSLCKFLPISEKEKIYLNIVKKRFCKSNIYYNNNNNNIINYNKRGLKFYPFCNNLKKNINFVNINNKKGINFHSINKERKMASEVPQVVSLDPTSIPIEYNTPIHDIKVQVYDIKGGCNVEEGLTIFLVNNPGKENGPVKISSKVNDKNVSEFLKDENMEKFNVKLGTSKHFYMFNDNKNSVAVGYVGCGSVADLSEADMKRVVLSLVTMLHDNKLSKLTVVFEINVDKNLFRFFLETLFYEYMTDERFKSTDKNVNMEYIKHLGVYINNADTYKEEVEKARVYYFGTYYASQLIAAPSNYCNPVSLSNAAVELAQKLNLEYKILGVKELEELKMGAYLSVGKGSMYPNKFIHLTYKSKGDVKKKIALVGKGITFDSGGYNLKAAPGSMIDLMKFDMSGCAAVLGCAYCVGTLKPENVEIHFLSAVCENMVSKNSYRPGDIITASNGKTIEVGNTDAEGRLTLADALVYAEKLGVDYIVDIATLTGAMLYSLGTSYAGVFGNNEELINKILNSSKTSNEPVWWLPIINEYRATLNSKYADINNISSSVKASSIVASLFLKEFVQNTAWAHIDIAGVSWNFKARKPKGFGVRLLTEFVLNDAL

Aspartyl aminopeptidase = Aspartyl aminopeptidase (Plasmodium falciparum 3D7, UniProt Q8I2J3)
[7] = biological target: Neuropeptide Y receptor type 2 (Homo sapiens, UniProt P49146); test: Fluorescence-based counterscreen for agonists of NPY-Y1: cell-based high-throughput dose response assay for agonists of NPY-Y2.; assay type: functional
[8] = biological target: Neuropeptide Y receptor type 1 (Homo sapiens, UniProt P25929); test: Fluorescence-based dose response cell-based high-throughput screening assay for agonists of NPY-Y1. [Related pubchem assays: 1697 (Screening assay (NPY-Y1 agonists).), 1359 (Screening assay (NPY-Y2 potentiators or agonists).), 1304 (Screening assay (NPY-Y1 potentiators or agonists).), 1704 (Screening assay (CNGC inhibitors).), 1791 (Summary AID.)]; assay type: functional
HEK293 [9] = test: Fluorescence-based counterscreen for potentiators or agonists of NPY-Y1: cell-based high-throughput dose response assay for inhibitors of cyclic nucleotide gated ion channel (CNGC) activity. In this assay, the parental HEK293 cell line transfected with a cyclic-nucleotide gated ion channel (CNGC)-based cAMP sensor is used to measure inhibition of isoproterenol-induced CNGC …; assay type: functional; settings: Homo sapiens

Neuropeptide Y receptor type 2, sequence (P49146 whole entry): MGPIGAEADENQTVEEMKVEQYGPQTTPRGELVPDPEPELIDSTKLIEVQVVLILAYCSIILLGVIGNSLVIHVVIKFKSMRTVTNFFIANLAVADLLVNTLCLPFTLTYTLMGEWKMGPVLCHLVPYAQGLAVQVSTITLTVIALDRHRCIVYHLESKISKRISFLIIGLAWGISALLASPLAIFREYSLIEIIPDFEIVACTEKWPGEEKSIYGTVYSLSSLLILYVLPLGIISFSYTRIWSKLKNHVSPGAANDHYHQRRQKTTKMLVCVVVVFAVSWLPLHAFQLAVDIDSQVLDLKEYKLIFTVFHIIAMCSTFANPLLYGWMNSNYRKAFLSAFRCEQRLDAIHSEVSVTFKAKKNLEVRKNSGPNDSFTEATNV
Aspartyl aminopeptidase, sequence (Q8I2J3 whole entry): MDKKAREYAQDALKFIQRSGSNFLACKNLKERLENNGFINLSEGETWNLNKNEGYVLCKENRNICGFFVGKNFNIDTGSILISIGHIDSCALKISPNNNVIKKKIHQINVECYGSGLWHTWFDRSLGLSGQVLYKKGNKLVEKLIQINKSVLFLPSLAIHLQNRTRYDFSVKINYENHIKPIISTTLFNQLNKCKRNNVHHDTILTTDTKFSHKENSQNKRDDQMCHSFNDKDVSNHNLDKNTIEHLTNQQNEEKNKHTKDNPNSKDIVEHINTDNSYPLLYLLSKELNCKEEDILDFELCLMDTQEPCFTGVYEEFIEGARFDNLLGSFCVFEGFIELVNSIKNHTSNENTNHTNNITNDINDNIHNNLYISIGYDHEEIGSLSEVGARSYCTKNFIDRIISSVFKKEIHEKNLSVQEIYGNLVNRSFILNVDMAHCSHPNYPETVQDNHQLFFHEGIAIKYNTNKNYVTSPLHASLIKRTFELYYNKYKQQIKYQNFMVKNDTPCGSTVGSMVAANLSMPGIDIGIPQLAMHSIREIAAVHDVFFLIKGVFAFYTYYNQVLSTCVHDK
Procathepsin L, sequence (P07711 whole entry): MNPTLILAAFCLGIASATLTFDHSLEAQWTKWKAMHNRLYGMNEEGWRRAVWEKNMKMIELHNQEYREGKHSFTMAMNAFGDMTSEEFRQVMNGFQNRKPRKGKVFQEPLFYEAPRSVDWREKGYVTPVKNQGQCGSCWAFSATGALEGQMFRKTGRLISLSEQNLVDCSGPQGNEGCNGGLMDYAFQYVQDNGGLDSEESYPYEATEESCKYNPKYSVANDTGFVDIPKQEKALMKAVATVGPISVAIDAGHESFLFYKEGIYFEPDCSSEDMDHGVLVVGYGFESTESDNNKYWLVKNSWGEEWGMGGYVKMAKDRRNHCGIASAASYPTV
Tumor necrosis factor, sequence (P01375 whole entry, the tested form may be a part): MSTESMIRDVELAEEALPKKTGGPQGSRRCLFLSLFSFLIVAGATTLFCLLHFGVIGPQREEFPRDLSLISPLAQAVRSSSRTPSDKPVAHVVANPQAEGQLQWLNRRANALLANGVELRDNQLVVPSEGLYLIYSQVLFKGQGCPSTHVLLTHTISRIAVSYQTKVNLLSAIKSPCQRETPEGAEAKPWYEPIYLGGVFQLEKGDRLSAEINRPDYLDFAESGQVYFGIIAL
Protein Rev, sequence (P05866 whole entry): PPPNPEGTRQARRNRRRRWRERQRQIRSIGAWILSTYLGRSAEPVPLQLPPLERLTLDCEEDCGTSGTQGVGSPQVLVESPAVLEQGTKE
Nucleotide-binding oligomerization domain-containing protein 2, sequence (Q9HC29 whole entry, the tested form may be a part): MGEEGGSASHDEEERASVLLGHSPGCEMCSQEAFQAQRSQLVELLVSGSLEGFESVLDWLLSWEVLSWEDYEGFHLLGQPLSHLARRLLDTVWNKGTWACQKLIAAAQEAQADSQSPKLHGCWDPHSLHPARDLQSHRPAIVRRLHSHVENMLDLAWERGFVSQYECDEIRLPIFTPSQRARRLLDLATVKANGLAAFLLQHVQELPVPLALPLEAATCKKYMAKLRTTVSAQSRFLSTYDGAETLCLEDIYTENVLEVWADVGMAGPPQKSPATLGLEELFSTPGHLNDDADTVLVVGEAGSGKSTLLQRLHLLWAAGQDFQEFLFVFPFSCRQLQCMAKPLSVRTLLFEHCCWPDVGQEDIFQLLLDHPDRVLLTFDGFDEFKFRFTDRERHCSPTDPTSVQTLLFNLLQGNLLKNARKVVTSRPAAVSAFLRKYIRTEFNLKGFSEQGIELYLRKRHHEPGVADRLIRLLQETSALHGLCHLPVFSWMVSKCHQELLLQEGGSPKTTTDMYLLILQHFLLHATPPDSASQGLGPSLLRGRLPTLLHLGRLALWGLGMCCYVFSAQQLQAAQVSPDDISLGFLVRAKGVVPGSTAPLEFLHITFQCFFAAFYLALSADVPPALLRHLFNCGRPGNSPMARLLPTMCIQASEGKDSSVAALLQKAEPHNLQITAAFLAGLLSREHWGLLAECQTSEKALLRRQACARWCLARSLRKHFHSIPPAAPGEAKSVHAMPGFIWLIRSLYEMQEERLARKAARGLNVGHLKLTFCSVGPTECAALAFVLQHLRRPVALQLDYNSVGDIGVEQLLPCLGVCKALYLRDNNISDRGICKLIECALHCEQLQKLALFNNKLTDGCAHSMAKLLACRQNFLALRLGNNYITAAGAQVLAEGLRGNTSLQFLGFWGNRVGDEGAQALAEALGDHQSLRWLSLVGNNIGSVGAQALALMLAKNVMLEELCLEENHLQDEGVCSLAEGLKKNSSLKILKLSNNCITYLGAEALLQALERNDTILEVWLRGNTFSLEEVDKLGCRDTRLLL
Neuropeptide Y receptor type 1, sequence (P25929 whole entry): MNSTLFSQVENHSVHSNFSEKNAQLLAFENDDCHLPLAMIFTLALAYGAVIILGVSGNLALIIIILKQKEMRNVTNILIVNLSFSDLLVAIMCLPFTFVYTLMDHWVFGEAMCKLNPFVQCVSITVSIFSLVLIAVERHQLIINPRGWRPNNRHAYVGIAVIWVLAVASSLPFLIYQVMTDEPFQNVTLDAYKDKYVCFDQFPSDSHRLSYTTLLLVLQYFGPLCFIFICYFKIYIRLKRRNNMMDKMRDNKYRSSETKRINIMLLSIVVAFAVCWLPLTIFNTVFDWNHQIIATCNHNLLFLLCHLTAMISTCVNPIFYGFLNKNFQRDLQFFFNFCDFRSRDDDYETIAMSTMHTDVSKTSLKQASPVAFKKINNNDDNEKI
Nucleotide-binding oligomerization domain-containing protein 1, sequence (Q9Y239 whole entry, the tested form may be a part): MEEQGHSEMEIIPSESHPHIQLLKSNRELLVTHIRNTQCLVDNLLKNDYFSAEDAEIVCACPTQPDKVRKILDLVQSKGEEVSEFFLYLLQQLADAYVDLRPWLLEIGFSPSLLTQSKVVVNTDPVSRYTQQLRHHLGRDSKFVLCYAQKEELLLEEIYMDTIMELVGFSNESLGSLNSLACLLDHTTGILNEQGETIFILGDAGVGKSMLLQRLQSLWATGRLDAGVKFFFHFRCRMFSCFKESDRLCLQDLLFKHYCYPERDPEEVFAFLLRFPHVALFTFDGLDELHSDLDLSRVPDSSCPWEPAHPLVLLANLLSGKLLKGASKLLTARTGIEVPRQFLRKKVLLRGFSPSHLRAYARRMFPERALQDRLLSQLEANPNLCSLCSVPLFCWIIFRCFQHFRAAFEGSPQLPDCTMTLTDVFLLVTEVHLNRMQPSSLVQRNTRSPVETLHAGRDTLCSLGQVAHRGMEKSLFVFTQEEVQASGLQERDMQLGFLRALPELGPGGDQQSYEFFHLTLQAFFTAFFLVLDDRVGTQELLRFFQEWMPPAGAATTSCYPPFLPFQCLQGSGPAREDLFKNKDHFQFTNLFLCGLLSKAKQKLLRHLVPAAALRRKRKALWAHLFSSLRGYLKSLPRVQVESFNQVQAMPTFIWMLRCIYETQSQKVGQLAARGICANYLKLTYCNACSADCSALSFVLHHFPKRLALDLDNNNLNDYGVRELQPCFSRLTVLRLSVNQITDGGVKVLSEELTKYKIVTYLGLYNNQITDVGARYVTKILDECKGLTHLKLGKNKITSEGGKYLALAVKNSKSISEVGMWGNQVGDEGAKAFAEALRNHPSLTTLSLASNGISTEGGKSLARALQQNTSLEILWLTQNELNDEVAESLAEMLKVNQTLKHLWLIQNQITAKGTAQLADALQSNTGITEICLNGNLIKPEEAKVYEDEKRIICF

Compound: CCOC(=O)c1c(NC(=O)CN2CCOCC2)sc2c1CC(C)(C)OC2
IC50 (Tumor necrosis factor): > 20 µM (inactive) | IC50 [1]: > 20 µM (inactive) | IC50 (HEK293 [2]): > 20 µM (inactive) | IC50 [3]: > 20 µM (inactive)

Compound: CCc1ccc2nc3nc(C)cc(C)c3c(N)c2c1
IC50 (Protein Rev): 58.8 µM (not active) | EC50 [4]: 3.35 µM (active) | AC50 [5]: 3.58 µM (active) | AC50 [6]: 9.59 µM (active) | CC50 (Vero): 21.6 µM (active)

IC50 (Procathepsin L): > 59.6 µM (not active) | IC50 (Leucine aminopeptidase): 19.9 µM (active) | IC50 (Aspartyl aminopeptidase): 0.975 µM (active)
Compound: O=C(CSc1nc[nH]n1)Nc1ccc([N+](=O)[O-])cc1Br

Compound: CCC(C)C1C(C#N)=C(N)Oc2[nH]nc(-c3ccccc3)c21 (stereo not given)
EC50 [7]: > 35.4 µM (not active) | EC50 [8]: > 35.4 µM (not active) | IC50 (HEK293 [9]): 25 µM (not active)
